The test system of experiment [1] is Sclerotium cepivorum. Description: Example 1: in vitro growth on agar plates containing organic acids. The class given is cell-based. As to conditions: for Sclerotium Treated (in vitro growth, mean±SE): n=4 plates. On the set-up: Sclerotium Treated (in vitro growth, mean±SE): unit not given here. Here is the method:
(§1) In FIG. 1, n.s. indicates “not significant”, ppm indicates “parts per million”; L and (S) indicate levorotatory and sinister rotatory, respectively, and asterisks are used to indicate degrees of statistical significance according to standard conventions. 2-fold concentrated compositions of lactate and acetate were diluted 1:1 with a deionized water + agar solution to prepare agar plates
(§2) In a first round of experiments, the effect of acetate, and dextrorotary (d), levorotary (1), and racemic mixtures of enantiomers of lactate alone, or in combination with acetate was evaluated on the growth of Sclerotium cepivorum and Botrytis cinera (Tables 1A and 1B).
(§3) The effects of higher concentrations of acetate and lactate L (S) on growth was evaluated (Tables 2A and 2B).

Experiment [2] relates to Botrytis cinerea. The experiment is described as above. The class given is cell-based. Set-up: Botrytis Treated (in vitro growth, mean±SE): unit not given here. Particulars: for Botrytis Treated (in vitro growth, mean±SE): n=4 plates. The procedure: as §1, §2, §3
Where [3] appears, read: 175 ppm, 7 days after inoculation.
Where [4] appears, read: 175 ppm, 7 days, negative = inhibition, n.s./bracketed = not significant.
The mark [5] stands for this setting: 350 ppm, 7 days after inoculation.
The mark [6] stands for this setting: 350 ppm, 7 days, negative = inhibition, n.s./bracketed = not significant.
[7] abbreviates: first round, concentrations of Tables 1A and 1B.
[8] abbreviates: 175 ppm, 7 days, n.s./bracketed = not significant.
Setting [9] is: 350 ppm, 7 days, n.s./bracketed = not significant.
The mark [10] stands for this setting: 200 ppm, 7 days after inoculation.
The mark [11] stands for this setting: 400 ppm, 7 days after inoculation.
Setting [12] is: 600 ppm, 7 days, second round (higher concentrations).
Where [13] appears, read: 600 ppm, 7 days, second round, n.s./bracketed = not significant.
The mark [14] stands for this setting: higher concentrations, Tables 2A and 2B.

With `CC(O)C(=O)O` (racemic) [Lactate DL (RS racemic mix), reference compound], the “Sclerotium Treated (in vitro growth, mean±SE)” value is on record as 2.06 ± 1.18 in experiment [1] (setting [3]) and 6.71 ± 2.90 in experiment [1] (setting [5]). In addition, the “% Efficacy (percentage of mean growth in control plates)” value in experiment [1] (setting [4]) is given as -72%; in experiment [1] (setting [6]) it was “n.s”; in experiment [2] (setting [8]) it was “n.s”; in experiment [2] (setting [9]) it was “n.s”. In addition, the “effect on growth of S. cepivorum (in words)” value in experiment [1] (setting [7]) is on record as “inhibited growth”. Also, the figures for the “Botrytis Treated (in vitro growth, mean±SE)” value in experiment [2] (setting [3]) and in experiment [2] (setting [5]) were 16.81 ± 1.23 and 26.15 ± 3.37, respectively.

On to `CC(=O)O` [Acetate, acetic acid], for which the “Sclerotium Treated (in vitro growth, mean±SE)” value is 3.63 ± 2.30 in experiment [1] (setting [10]); 2.62 ± 1.85 in experiment [1] (setting [11]); 2.41 ± 0.57 in experiment [1] (setting [12]); 0.51 ± 0.20 in experiment [1] (800 ppm, 7 days, second round). For the same compound, the “% Efficacy (percentage of mean growth in control plates)” value in experiment [1] (200 ppm, 7 days, negative = inhibition, n.s./bracketed = not significant) is “n.s. [23] %”; in experiment [1] (400 ppm, 7 days, negative = inhibition, n.s./bracketed = not significant), “n.s. [-39] %”; in experiment [1] (setting [13]) it was -86%; in experiment [1] (800 ppm, 7 days, second round), -97%; in experiment [2] (200 ppm, 7 days, negative = inhibition), -33%; in experiment [2] (400 ppm, 7 days, negative = inhibition), -49%. Moreover, the “% Efficacy (percentage of mean growth in control plates)” value in experiment [2] (setting [13]) was “n.s.[11] %”; in experiment [2] (800 ppm, 7 days, second round, n.s./bracketed = not significant), “n.s.[13] %”; in experiment [2] (1000 ppm, 7 days, second round, positive = more growth), 48%. Besides, the figures for the “effect on growth of S. cepivorum (in words)” value in experiment [1] (setting [7]) and in experiment [1] (setting [14]) were “significantly inhibited growth” and “increased with acetate concentration at all concentrations evaluated”, respectively. In addition, the “Botrytis Treated (in vitro growth, mean±SE)” value in experiment [2] (setting [10]) came to 16.19 ± 1.09; in experiment [2] (setting [11]), 12.37 ± 0.79; in experiment [2] (600 ppm, 7 days, second round), 22.25 ± 4.12; in experiment [2] (800 ppm, 7 days, second round), 22.73 ± 4.69; in experiment [2] (1000 ppm, 7 days, second round) it was 29.75 ± 3.76. In addition, the “effect on growth of B. cinerea (in words)” value in experiment [2] (setting [7]) was “significantly inhibited growth”; in experiment [2] (summary of FIG. 1) it was “inhibited growth of B. cinera at lower concentrations, but served as a carbon source at higher concentrations”.

Regarding `C[C@@H](O)C(=O)O` [Lactate D (R), D-lactic acid, reference compound], the results for the “Sclerotium Treated (in vitro growth, mean±SE)” value in experiment [1] (setting [3]) and in experiment [1] (setting [5]) were 14.09 ± 5.75 and 10.68 ± 3.19, respectively. Moreover, the “% Efficacy (percentage of mean growth in control plates)” value is “n.s” in experiment [1] (setting [4]), “n.s” in experiment [1] (setting [6]), 49% in experiment [2] (setting [8]) and “[35] %” in experiment [2] (setting [9]). Further, the “effect on growth of S. cepivorum (in words)” value in experiment [1] (setting [7]) is on record as “appeared to act as a carbon source”. The results for the “Botrytis Treated (in vitro growth, mean±SE)” value in experiment [2] (setting [3]) and in experiment [2] (setting [5]) were 23.42 ± 1.23 and 23.82 ± 2.65, respectively.

Regarding `C[C@H](O)C(=O)O` [Lactate L (S), L-lactic acid], the “Sclerotium Treated (in vitro growth, mean±SE)” value in experiment [1] (setting [3]) is recorded as 5.73 ± 1.72; in experiment [1] (setting [5]) it was 5.17 ± 1.85; in experiment [1] (450 ppm, 7 days, second round) it was 16.08 ± 3.55; in experiment [1] (setting [12]) it was 20.50 ± 4.10. Moreover, the “% Efficacy (percentage of mean growth in control plates)” value in experiment [1] (setting [4]) is “[-43] %”; in experiment [1] (setting [6]) it was “[-46] %”; in experiment [1] (450 ppm, 7 days, second round, n.s./bracketed = not significant), “n.s.[-7] %”; in experiment [1] (setting [13]), “n.s.[18] %”; in experiment [2] (setting [8]) it was “[38] %”; in experiment [2] (setting [9]), “[71] %”. The “effect on growth of S. cepivorum (in words)” value in experiment [1] (setting [7]) was “inhibited growth”; in experiment [1] (setting [14]) it was “not effective”; in experiment [1] (summary of FIG. 1), “inhibited growth of S. cepivorum at lower concentrations, but served as a carbon source at higher concentrations”. Further, the “Botrytis Treated (in vitro growth, mean±SE)” value in experiment [2] (setting [3]) was determined as 23.59 ± 2.66; in experiment [2] (setting [5]), 27.71 ± 4.97.

These data come from patent publication US20230157283A1, “COMPOSITIONS AND METHODS FOR INHIBITING A FUNGAL PATHOGEN” (Tu Biomics, Inc., priority 2020, published 2023).
